Reference: patent publication US20090131431A1, “Pyrazolo[3,4-b]pyridine compounds, and their use as a PDE4 inhibitors” (priority 2005, published 2009)

biological target: T1, PDE4B (human recombinant) (Homo sapiens, UniProt Q07343); test: Inhibition of PDE4B activity: SPA and/or Fluorescence Polarisation (FP) assay; type: biochemical; conditions: one reading (n=1) or average of 2 or more readings, read-out: PDE4B pIC50 (±about 0.5) (converted)
T1 construct: made in house
Protocol: The ability of compounds to inhibit catalytic activity at PDE4B or 4D (human recombinant), PDE3 (from bovine aorta), PDE5 (human recombinant) or PDE6 (from bovine retina) can optionally be determined by Scintillation Proximity Assay (SPA) in a 96-well format.
The enzyme concentration is adjusted so that no more than 20% hydrolysis of the substrate defined below occurs in control wells without compound, during the incubation. For the PDE3, PDE4B and PDE4D assays, [5′,8-3H]Adenosine 3′,5′-cyclic phosphate (Amersham Pharmacia Biotech, code TRK.559; or Amersham Biosciences UK Ltd, Pollards Wood, Chalfont St Giles, Buckinghamshire HP8 4SP, UK) is added to give 0.05 uCi per well and about 10 nM final concentration. […] Plates containing assay mixture, suitably approx. 100 ul volume of assay mixture, are mixed on an orbital shaker for 5 minutes and incubated at ambient temperature for 1 hour. Phosphodiesterase SPA beads (Amersham Pharmacia Biotech, code RPNQ 0150) are added (about 1 mg per well) to terminate the assay. Plates are sealed and shaken and allowed to stand at ambient temperature for 35 minutes to 1 hour (suitably 35 minutes) to allow the beads to settle. […] Curves are analysed using ActivityBase and XLfit (ID Business Solutions Limited, 2 Ocean Court, Surrey Research Park, Guildford, Surrey GU2 7QB, United Kingdom). Results are expressed as pIC50 values.
The ability of compounds to inhibit catalytic activity at PDE4B (human recombinant) or PDE4D (human recombinant) can optionally be determined by IMAP Fluorescence Polarisation (FP) assay (IMAP Explorer kit, available from Molecular Devices Corporation, Sunnydale, Calif., USA; Molecular Devices code: R8062) in 384-well format.
The IMAP FP assay is able to measure PDE activity in an homogenous, non-radioactive assay format. The FP assay uses the ability of immobilised trivalent metal cations, coated onto nanoparticles (tiny beads), to bind the phosphate group of Fl-AMP that is produced on the hydrolysis of fluorescein-labelled (Fl) cyclic adenosine mono-phosphate (Fl-cAMP) to the non-cyclic Fl-AMP form. […] Binding of Fl-AMP product to the beads (coated with the immobilised trivalent cations) slows the rotation of the bound Fl-AMP and leads to an increase in the fluorescence polarisation ratio of parallel to perpendicular light. Inhibition of the PDE reduces/inhibits this signal increase.
The enzyme level is set by experimentation so that reaction is linear throughout the incubation. Fluorescein adenosine 3′,5′-cyclic phosphate (from Molecular Devices Corporation, Molecular Devices code: R7091) is added to give about 40 nM final concentration (final assay volume usually ca. 20-40 ul, suitably ca. 20 ul). Plates are mixed on an orbital shaker for 10 seconds and incubated at ambient temperature for 40 minutes. IMAP binding reagent (as described above, from Molecular Devices Corporation, Molecular Devices code: R7207) is added (60 ul of a 1 in 400 dilution in binding buffer of the kit stock solution) to terminate the assay. Plates are allowed to stand at ambient temperature for 1 hour. The Fluorescence Polarisation (FP) ratio of parallel to perpendicular light is measured using an Analyst™ plate reader (from Molecular Devices Corporation). […] Curves are analysed using ActivityBase and XLfit (ID Business Solutions Limited, 2 Ocean Court, Surrey Research Park, Guildford, Surrey GU2 7QB, United Kingdom). Results are expressed as plC50 values.

T1 sequence (Q07343 1-564 isoform Q07343-2): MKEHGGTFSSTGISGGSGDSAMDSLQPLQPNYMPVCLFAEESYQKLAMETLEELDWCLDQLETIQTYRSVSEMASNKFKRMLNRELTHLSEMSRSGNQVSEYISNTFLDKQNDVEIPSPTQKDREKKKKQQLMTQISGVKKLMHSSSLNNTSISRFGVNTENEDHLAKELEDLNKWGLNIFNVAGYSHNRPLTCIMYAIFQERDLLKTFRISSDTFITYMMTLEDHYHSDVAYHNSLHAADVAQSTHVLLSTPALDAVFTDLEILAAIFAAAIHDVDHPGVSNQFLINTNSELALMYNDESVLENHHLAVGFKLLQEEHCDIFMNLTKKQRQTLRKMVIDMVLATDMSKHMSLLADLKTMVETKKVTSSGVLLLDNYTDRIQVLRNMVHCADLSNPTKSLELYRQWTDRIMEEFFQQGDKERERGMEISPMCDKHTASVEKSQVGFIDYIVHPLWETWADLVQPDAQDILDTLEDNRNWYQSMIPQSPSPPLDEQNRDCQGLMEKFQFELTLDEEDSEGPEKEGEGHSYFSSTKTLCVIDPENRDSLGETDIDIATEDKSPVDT

Row | Compound | IC50
1 | CCn1ncc2c(NC3CCOCC3)c(CNC(=O)c3ccc(N(C)C)cc3)cnc21 [Example 88, 4-(dimethylamino)-N-{[1-ethyl-4-(tetrahydro-2H-pyran-4-ylamino)-1H-pyrazolo[3,4-b]pyridin-5-yl]methyl}benzamide] | 126 to 1000 pM
2 | CCn1ncc2c(NC3CCOCC3)c(CNC(=O)c3ccc(NC(C)=O)cc3)c(C)nc21 [Example 93, 4-(acetylamino)-N-{[1-ethyl-6-methyl-4-(tetrahydro-2H-pyran-4-ylamino)-1H-pyrazolo[3,4-b]pyridin-5-yl]methyl}benzamide] | 126 to 1000 pM
3 | CCn1ncc2c(NC3CCOCC3)c(CNS(=O)(=O)c3cccs3)c(C)nc21 [Example 108, N-{[1-ethyl-6-methyl-4-(tetrahydro-2H-pyran-4-ylamino)-1H-pyrazolo[3,4-b]pyridin-5-yl]methyl}-2-thiophenesulfonamide] | 126 to 1000 pM
4 | CCn1ncc2c(NC3CCOCC3)c(CNC(=O)c3ccc(N4CCCCC4)cc3)c(C)nc21 [Example 116, N-{[1-ethyl-6-methyl-4-(tetrahydro-2H-pyran-4-ylamino)-1H-pyrazolo[3,4-b]pyridin-5-yl]methyl}-4-(1-piperidinyl)benzamide] | 10 to 100 pM
5 | CCn1ncc2c(NC3CCOCC3)c(CNC(=O)c3cccc(N(C)C)c3)cnc21 [Example 120, 3-(dimethylamino)-N-{[1-ethyl-4-(tetrahydro-2H-pyran-4-ylamino)-1H-pyrazolo[3,4-b]pyridin-5-yl]methyl}benzamide] | 126 to 1000 pM
6 | CCn1ncc2c(NC3CCOCC3)c(CNC(=O)c3ccc(S(C)(=O)=O)cc3)c(C)nc21 [Example 124, N-{[1-ethyl-6-methyl-4-(tetrahydro-2H-pyran-4-ylamino)-1H-pyrazolo[3,4-b]pyridin-5-yl]methyl}-4-(methylsulfonyl)benzamide] | 126 to 1000 pM
7 | CCn1ncc2c(NC3CCOCC3)c(CNC(=O)c3cccnc3)c(C)nc21 [Example 125, N-{[1-ethyl-6-methyl-4-(tetrahydro-2H-pyran-4-ylamino)-1H-pyrazolo[3,4-b]pyridin-5-yl]methyl}-3-pyridinecarboxamide] | 126 to 1000 pM
8 | CCc1nc2c(cnn2CC)c(NC2CCOCC2)c1CNC(=O)c1cnccn1 [Example 146, N-{[1,6-diethyl-4-(tetrahydro-2H-pyran-4-ylamino)-1H-pyrazolo[3,4-b]pyridin-5-yl]methyl}-2-pyrazinecarboxamide] | 126 to 1000 pM
9 | CCc1nc2c(cnn2CC)c(NC2CCOCC2)c1CNC(=O)c1cccc(NC(C)=O)c1 [Example 147, 3-(acetylamino)-N-{[1,6-diethyl-4-(tetrahydro-2H-pyran-4-ylamino)-1H-pyrazolo[3,4-b]pyridin-5-yl]methyl}benzamide] | 10 to 100 pM
10 | CCc1nc2c(cnn2CC)c(NC2CCOCC2)c1CNC(=O)c1ccc(-n2cccc2)nc1 [Example 148, N-{[1,6-diethyl-4-(tetrahydro-2H-pyran-4-ylamino)-1H-pyrazolo[3,4-b]pyridin-5-yl]methyl}-6-(1H-pyrrol-1-yl)-3-pyridinecarboxamide] | 10 to 100 pM
11 | CCc1nc2c(cnn2CC)c(NC2CCOCC2)c1CNC(=O)c1cccc(N2CCCC2=O)c1 [Example 149, N-{[1,6-diethyl-4-(tetrahydro-2H-pyran-4-ylamino)-1H-pyrazolo[3,4-b]pyridin-5-yl]methyl}-3-(2-oxo-1-pyrrolidinyl)benzamide] | 10 to 100 pM
12 | CCc1nc2c(cnn2CC)c(NC2CCOCC2)c1CNC(=O)c1ccnnc1 [Example 150, N-{[1,6-diethyl-4-(tetrahydro-2H-pyran-4-ylamino)-1H-pyrazolo[3,4-b]pyridin-5-yl]methyl}-4-pyridazinecarboxamide] | 126 to 1000 pM
13 | CCc1nc2c(cnn2CC)c(NC2CCOCC2)c1CNC(=O)c1cncnc1 [Example 151, N-{[1,6-diethyl-4-(tetrahydro-2H-pyran-4-ylamino)-1H-pyrazolo[3,4-b]pyridin-5-yl]methyl}-5-pyrimidinecarboxamide] | 126 to 1000 pM
14 | CCc1nc2c(cnn2CC)c(NC2CCOCC2)c1CNC(=O)c1ccco1 [Example 153, N-{[1,6-diethyl-4-(tetrahydro-2H-pyran-4-ylamino)-1H-pyrazolo[3,4-b]pyridin-5-yl]methyl}-2-furancarboxamide] | 10 to 100 pM
15 | CCc1nc2c(cnn2CC)c(NC2CCOCC2)c1CNC(=O)c1ccoc1 [Example 154, N-{[1,6-diethyl-4-(tetrahydro-2H-pyran-4-ylamino)-1H-pyrazolo[3,4-b]pyridin-5-yl]methyl}-3-furancarboxamide] | 126 to 1000 pM

Now from value to molecule:

Row | IC50 | Compound
16 | 126 to 1000 pM | CCc1nc2c(cnn2CC)c(NC2CCOCC2)c1CNC(=O)c1nc(C)oc1C(F)(F)F [Example 155, N-{[1,6-diethyl-4-(tetrahydro-2H-pyran-4-ylamino)-1H-pyrazolo[3,4-b]pyridin-5-yl]methyl}-2-methyl-5-(trifluoromethyl)-1,3-oxazole-4-carboxamide]
17 | 126 to 1000 pM | CCc1nc2c(cnn2CC)c(NC2CCOCC2)c1CNC(=O)C1CCCO1 (centres unmarked) [Example 156, N-{[1,6-diethyl-4-(tetrahydro-2H-pyran-4-ylamino)-1H-pyrazolo[3,4-b]pyridin-5-yl]methyl}tetrahydro-2-furancarboxamide]
18 | 10 to 100 pM | CCc1nc2c(cnn2CC)c(NC2CCOCC2)c1CNC(=O)c1ccc(NC(C)=O)cc1OC [Example 157, 4-(acetylamino)-N-{[1,6-diethyl-4-(tetrahydro-2H-pyran-4-ylamino)-1H-pyrazolo[3,4-b]pyridin-5-yl]methyl}-2-(methyloxy)benzamide]
19 | 126 to 1000 pM | CCc1nc2c(cnn2CC)c(NC2CCOCC2)c1CNC(=O)c1ccnn1C [Example 158, N-{[1,6-diethyl-4-(tetrahydro-2H-pyran-4-ylamino)-1H-pyrazolo[3,4-b]pyridin-5-yl]methyl}-1-methyl-1H-pyrazole-5-carboxamide]
20 | 10 to 100 pM | CCOc1ncccc1C(=O)NCc1c(CC)nc2c(cnn2CC)c1NC1CCOCC1 [Example 159, N-{[1,6-diethyl-4-(tetrahydro-2H-pyran-4-ylamino)-1H-pyrazolo[3,4-b]pyridin-5-yl]methyl}-2-(ethyloxy)-3-pyridinecarboxamide]
21 | 10 to 100 pM | CCOc1ccccc1C(=O)NCc1c(CC)nc2c(cnn2CC)c1NC1CCOCC1 [Example 160, N-{[1,6-diethyl-4-(tetrahydro-2H-pyran-4-ylamino)-1H-pyrazolo[3,4-b]pyridin-5-yl]methyl}-2-(ethyloxy)benzamide]
22 | 10 to 100 pM | CCc1nc2c(cnn2CC)c(NC2CCOCC2)c1CNC(=O)c1cccc2c1OCC2 [Example 161, N-{[1,6-diethyl-4-(tetrahydro-2H-pyran-4-ylamino)-1H-pyrazolo[3,4-b]pyridin-5-yl]methyl}-2,3-dihydro-1-benzofuran-7-carboxamide]
23 | 126 to 1000 pM | CCc1nc2c(cnn2CC)c(NC2CCOCC2)c1CNS(=O)(=O)Cc1ccccc1 [Example 169, N-{[1,6-diethyl-4-(tetrahydro-2H-pyran-4-ylamino)-1H-pyrazolo[3,4-b]pyridin-5-yl]methyl}-1-phenylmethanesulfonamide]
24 | 126 to 1000 pM | CCc1nc2c(cnn2CC)c(NC2CCOCC2)c1CNS(=O)(=O)C(C)C [Example 173, N-{[1,6-diethyl-4-(tetrahydro-2H-pyran-4-ylamino)-1H-pyrazolo[3,4-b]pyridin-5-yl]methyl}-2-propanesulfonamide]
25 | 10 to 100 pM | CCc1nc2c(cnn2CC)c(NC2CCOCC2)c1CNC(=O)c1nc2ccc(Cl)cc2nc1OC [Example 174, 6-chloro-N-{[1,6-diethyl-4-(tetrahydro-2H-pyran-4-ylamino)-1H-pyrazolo[3,4-b]pyridin-5-yl]methyl}-3-(methyloxy)-2-quinoxalinecarboxamide]
26 | 10 to 100 pM | CCc1nc2c(cnn2CC)c(NC2CCOCC2)c1CNC(=O)c1ccc(N2CCCCC2)cc1 [Example 175, N-{[1,6-diethyl-4-(tetrahydro-2H-pyran-4-ylamino)-1H-pyrazolo[3,4-b]pyridin-5-yl]methyl}-4-(1-piperidinyl)benzamide]
